Experimental findings from US11339177B2, “Heteroaryl compounds as inhibitors of necrosis, composition and method using the same” (ACCRO BIOSCIENCE INC., priority 2017, dated 2022) are described below.

The subject of the assay is HT29 cells. Put plainly: Necroptosis assay in HT29 cells (TNF-α, Smac mimetic, z-VAD; cell viability). The class given is cell-based. The conditions noted are these: Homo sapiens, HT-29; TNF-α (40 ng/mL), Smacmimetic (100 nM), z-VAD (20 μM), 48 hours. As to the method:
Human colon cancer HT29 cells were used in a necroptosis assay. For this assay, HT29 cells were added to 96-well plates and then were pre-treated with 10 μM of the test compound for one hour. Then the cells were treated with TNF-α (40 ng/mL), Smacmimetic (100 nM) and z-VAD (20 μM) for 48 hours, and the viability of cells was quantified. DMSO pretreatment group was used as negative controls, Nec-1 pretreatment group was used as positive controls.
In Table 2, (1) “ND” indicates “not detected;” (2) Explanation for inhibition %: Taking Compound B14 as an example, its inhibition % was 30% (50 nM). It means that the when Compound B14 at a concentration of 50 nM was used in the HT29 Cell Assay, the necrosis of cells were inhibited at 30%.

One may read the IC50 as the concentration at which inhibition is half-maximal.

In the case of `CC(=O)Nc1nc2ccc(-c3cnc4c(c3)N(C(=O)OC3CCCCC3)CCO4)cc2s1` [Compound B2, Cyclohexyl-7-(2-acetamidobenzo[d]thiazol-6-yl)-2,3-dihydro-1H-pyrido[2,3-b][1,4]oxazine-1-carboxylate], 2 nM corresponded to half-maximal inhibition (IC50).
The molecule `Nc1nc2cc(-c3cnc4c(c3)N(C(=O)OC3CCCCC3)CCO4)ccn2n1` [Compound B4] had an IC50 of 90 nM.
With `CC(=O)Nc1nc2cc(-c3cnc4c(c3)N(C(=O)OC3CCCCC3)CCO4)ccn2n1` [Compound B5], it took 42 nM to reach half-maximal inhibition (IC50).
The molecule `Nc1nc2ccc(-c3cnc4c(c3)N(C(=O)OC3CCCCC3)CCO4)cn2n1` [Compound B6] had an IC50 of 90 nM.
`CC(C)(C)OC(=O)Nc1cn2cc(-c3cnc4c(c3)N(C(=O)OC3CCCCC3)CCO4)ccc2n1` [Compound B10]: the IC50 turned out to be 5 nM.
Molecule `CC(=O)Nc1cn2nc(-c3cnc4c(c3)N(C(=O)OC3CCCCC3)CCO4)ccc2n1` [Compound B12] showed an IC50 of 11 nM.
To `CC(C)(C)OC(=O)Nc1nc2ccc(-c3cnc4c(c3)N(C(=O)OC3CCOCC3)CCO4)cc2s1` [Compound B17, tetrahydro-2H-pyran-4-yl-7-(2-((tert-butoxycarbonyl)amino)benzo[d]thiazol-6-yl)-2,3-dihydro-1H-pyrido[2,3-b][1,4]oxazine-1-carboxylate] belongs 26 nM; to `CC(=O)Nc1nc2ccc(-c3cnc4c(c3)N(C(=O)OC3CCCCCC3)CCO4)cc2s1` [Compound B26], 3.2 nM; to `CC(=O)Nc1nc2ccc(-c3cnc4c(c3)N(C(=O)OC3COCCOC3)CCO4)cc2s1` [Compound B27], 132 nM.
To `CC(=O)Nc1nc2ccc(-c3cnc4c(c3)N(C(=O)NC3CCCCC3)CCO4)cc2s1` [Compound B28] belongs 39 nM.
The molecule `CC(=O)Nc1nc2ccc(-c3cnc4c(c3)N(C(=O)CC3CCCCC3)CCO4)cc2s1` [Compound B29] registered an IC50 of 27 nM.
As for `CC(=O)Nc1nc2ccc(-c3cnc4c(c3)N(C(=O)CC(C)(C)C)CCO4)cc2s1` [Compound B30], half-maximal inhibition (IC50) was put at 186 nM.
In turn, `CC(=O)Nc1nc2ccc(-c3cnc4c(c3)N(C(=O)OC3CCCCC3)CCO4)nc2s1` [Compound B31] returned an IC50 of 8.5 nM.
Next, `O=C(Nc1nc2ccc(-c3cnc4c(c3)N(C(=O)OC3CCCCC3)CCO4)nc2s1)C1CC1` [Compound B32]: 0.9 nM.
For the molecule `O=C1CCn2c(nc3ccc(-c4cnc5c(c4)N(C(=O)OC4CCCCC4)CCO5)cc32)N1` [Compound B33, Cyclohexyl7-(2-oxo-1,2,3,4-tetrahydrobenzo[4,5]imidazo[1,2-a]pyrimidin-7-yl)-2,3-dihydro-1H-pyrido[2,3-b][1,4]oxazine-1-carboxylate], inhibition was half-maximal at 15 nM (IC50).
Next, `O=C1Cn2c(nc3ccc(-c4cnc5c(c4)N(C(=O)OC4CCCCC4)CCO5)cc32)N1` [Compound B34]: 2300 nM.
To `CC(=O)Nc1nc2ccc(-c3cnc4c(c3)N(C(=O)CC3CCOCC3)CCO4)cc2s1` [Compound B36] belongs 530 nM.
`CC(=O)Nc1nc2ccc(-c3cnc4c(c3)N(C(=O)OC3CCCCC3)CC(=O)N4)cc2s1` [Compound B39, Cyclohexyl-7-(2-acetamidobenzo[d]thiazol-6-yl)-3-oxo-3,4-dihydropyrido[2,3-b]pyrazine-1(2H)-carboxylate] showed an IC50 of 2700 nM.
In the case of `CC(=O)Nc1nc2ccc(-c3cnc4c(c3)N(C(=O)OC3CCCCC3)CCN4)cc2s1` [Compound B40, Cyclohexyl-7-(2-acetamidobenzo[d]thiazol-6-yl)-3,4-dihydropyrido[2,3-b]pyrazine-1(2H)-carboxylate], the 50% inhibitory concentration (IC50) was found to be 24 nM.
With `CC(=O)Nc1nc2ccc(-c3cnc4c(c3)N(C(=O)OC3CCOCC3)CCN4)cc2s1` [Compound B41], the IC50 worked out at 110 nM.
Molecule `O=C(Nc1nc2ccc(-c3cnc4c(c3)N(C(=O)OC3CCOCC3)CCN4)cc2s1)C1CC1` [Compound B42] displayed an IC50 of 38 nM.
